Consider ten compounds from US20240293558A1, “KRAS INHIBITOR CONJUGATES” (Erasca, Inc., priority 2021, published 2024).

Structures are written as SMILES. Bounds are passed on as bounds.

For one experiment, the target named is T1, KRAS (WT) (Homo sapiens, UniProt P01116).
T1 construct: Biotinylated KRAS protein amino acids 1-169 (produced at Erasca); made in house
The experiment is described as follows: In-vitro RAS-RAF binding assay (RRB), HTRF/FRET. It is filed as biochemical. As to conditions: Table 2, average of multiple runs of each compound; read-out: Inhibition of RAS-RAF Binding (in-vitro) KRAS (WT) IC50. The procedure, abridged:
(§1)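 Biotinylated KRAS 1-169 (streptavidin-terbium donor, 30 nM) and GST-cRAF RBD (anti-GST d2 acceptor, 30 nM) in HEPES pH 7.5, NaCl, MgCl2, DTT buffer. After compound incubation, SOS1 catalytic domain plus GTPgS drive 60 min nucleotide exchange. HTRF FRET read at equilibrium, in duplicate.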
Background: Time-resolved FRET reads energy transfer from a long-lived donor to a nearby acceptor.

Experiment [1] deals with T2, KRas G12D fused to HiBiT peptide (Homo sapiens, UniProt P01116, G12D).
T2 construct: endogenous in cells; host or cells: AsPC-1 HiBiT knock-in single clone (Cas9 RNP + ssODN)
Put plainly: ASPC-1 HiBit assay to determine G12D degradation. It is filed as cell-based. As to conditions: AsPC-1 HiBiT cells, 24-hour incubation; read-out: ASPC-1 HiBit DC50 (C). The procedure, abridged: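 Homozygous AsPC-1 clone with N-terminal HiBiT knock-in on endogenous KRas G12D, 24 h compound exposure, top dose 10 μM, 3-fold, 10 points, 1% DMSO. Lytic HiBiT luminescence normalised to DMSO and inhibitor controls gives % degradation; DC50 from 4-parameter fit after hook-effect points removed.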
On the technique in general: The HiBiT peptide binds its large partner to form an active luciferase.

Another experiment has as its target KRAS G12D (Homo sapiens, UniProt P01116, G12D). The experiment is described as follows: In-vitro RAS-RAF binding assay (RRB), HTRF/FRET. Also noted: Biotinylated KRAS protein amino acids 1-169 (produced at Erasca); made in house. It is filed as biochemical. As to conditions: Table 2, average of multiple runs of each compound; read-out: Inhibition of RAS-RAF Binding (in-vitro) KRAS (G12D) IC50. The method in brief:
as §1

T1 sequence (P01116 1-169 isoform P01116-2): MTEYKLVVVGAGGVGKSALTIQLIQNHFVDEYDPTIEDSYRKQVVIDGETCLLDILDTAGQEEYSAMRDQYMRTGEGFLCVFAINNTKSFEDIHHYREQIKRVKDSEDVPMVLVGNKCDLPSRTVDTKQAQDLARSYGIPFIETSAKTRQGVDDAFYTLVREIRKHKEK
T2 sequence (P01116 1-188 isoform P01116-2 G12D): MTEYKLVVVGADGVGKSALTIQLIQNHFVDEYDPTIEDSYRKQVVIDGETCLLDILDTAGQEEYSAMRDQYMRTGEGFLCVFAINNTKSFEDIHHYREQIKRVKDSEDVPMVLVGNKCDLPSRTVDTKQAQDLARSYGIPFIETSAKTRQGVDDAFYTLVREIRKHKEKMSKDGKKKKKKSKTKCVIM
KRAS G12D, sequence (P01116 1-169 isoform P01116-2 G12D): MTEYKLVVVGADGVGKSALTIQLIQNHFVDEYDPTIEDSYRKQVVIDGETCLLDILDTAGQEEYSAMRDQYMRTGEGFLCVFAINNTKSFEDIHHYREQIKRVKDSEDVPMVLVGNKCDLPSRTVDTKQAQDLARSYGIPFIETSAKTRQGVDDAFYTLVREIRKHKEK

The term IC50 denotes the point on the concentration scale where inhibition reaches its midpoint. As usually defined, the DC50 is the midpoint of the concentration-degradation curve. Regarding `C#Cc1c(F)ccc2cc(O)cc(-c3ncc4c(N5CC6CCC(C5)N6)nc(OCCN5CCC(COc6cc(C(C(=O)N7C[C@H](O)C[C@H]7C(=O)N[C@@H](C)c7ccc(-c8scnc8C)cc7)C(C)C)on6)CC5)nc4c3F)c12` (stereo in doubt) [Example 35, (2S,4R)-1-((2R)-2-(3-((1-(2-((4-(3,8-diazabicyclo[3.2.1]octan-3-yl)-7-(8-ethynyl-7-fluoro-3-hydroxynaphthalen-1-yl)-8-fluoropyrido[4,3-d]pyrimidin-2-yl)oxy)ethyl)piperidin-4-yl)methoxy)isoxazol-5-yl)-3-methylbutanoyl)-4-hydroxy-N—((S)-1-(4-(4-methylthiazol-5-yl)phenyl)ethyl)pyrrolidine-2-carboxamide], the IC50 on KRAS (WT) came to 196 nM; on KRAS G12D it was 12.1 nM. Besides, in experiment [1], the 50% degradation concentration (DC50) was 467 nM.

In the case of `CC(C)[C@@H](C(=O)N1C[C@H](O)C[C@H]1C(=O)N[C@@H](C)c1ccc(-c2c(F)cccc2F)cc1)c1cc(OCC2CCN(CCOc3nc(N4CC5CCC(C4)N5)c4cc(C(F)(F)F)c(-c5ccc(F)c6sc(N)c(C#N)c56)c(F)c4n3)CC2)no1` [Example 18, (2S,4R)-1-((2R)-2-(3-((1-(2-((7-(2-amino-3-cyano-7-fluorobenzo[b]thiophen-4-yl)-4-(3,8-diazabicyclo[3.2.1]octan-3-yl)-8-fluoro-6-(trifluoromethyl)quinazolin-2-yl)oxy)ethyl)piperidin-4-yl)methoxy)isoxazol-5-yl)-3-methylbutanoyl)-N—((S)-1-(2′,6′-difluoro-[1,1′-biphenyl]-4-yl)ethyl)-4-hydroxypyrrolidine-2-carboxamide], the 50% inhibitory concentration (IC50) on KRAS (WT) stood at 3140 nM; on KRAS G12D it was 24.9 nM. Further, the 50% degradation concentration (DC50) in experiment [1] was found to be 247 nM.

As to `CC(C)[C@@H](C(=O)N1C[C@H](O)C[C@H]1C(=O)N[C@@H](C)c1ccc(-c2c(F)cc(F)cc2F)cc1)c1cc(OCC2CCN(CCOc3nc(N4CC5CCC(C4)N5)c4cc(Cl)c(-c5ccc(F)c6sc(N)c(C#N)c56)c(F)c4n3)CC2)no1` [Example 71, (2S,4R)-1-((2R)-2-(3-((1-(2-((7-(2-amino-3-cyano-7-fluorobenzo[b]thiophen-4-yl)-4-(3,8-diazabicyclo[3.2.1]octan-3-yl)-6-chloro-8-fluoroquinazolin-2-yl)oxy)ethyl)piperidin-4-yl)methoxy)isoxazol-5-yl)-3-methylbutanoyl)-4-hydroxy-N-((S)-1-(2′,4′,6′-trifluoro-[1,1′-biphenyl]-4-yl)ethyl)pyrrolidine-2-carboxamide], the half-maximal inhibitory concentration (IC50) on KRAS (WT) is over 10000 nM; on KRAS G12D, 28 nM. Also, the DC50 in experiment [1] came to 582 nM.

As to `C#Cc1c(F)ccc2cc(O)cc(-c3ncc4c(N5CC6CCC(C5)N6)nc(OC[C@@H]5CCCN5CCCOCCC(=O)N[C@H](C(=O)N5C[C@H](O)C[C@H]5C(=O)N[C@@H](C)c5ccc(-c6c(F)cc(F)cc6F)cc5)C(C)(C)C)nc4c3F)c12` [Example 49, (2S,4R)-1-((2S)-2-(3-(3-((2S)-2-(((4-(3,8-diazabicyclo[3.2.1]octan-3-yl)-7-(8-ethynyl-7-fluoro-3-hydroxynaphthalen-1-yl)-8-fluoropyrido[4,3-d]pyrimidin-2-yl)oxy)methyl)pyrrolidin-1-yl)propoxy)propanamido)-3,3-dimethylbutanoyl)-4-hydroxy-N-((S)-1-(2′,4′,6′-trifluoro-[1,1′-biphenyl]-4-yl)ethyl)pyrrolidine-2-carboxamide], the 50% inhibitory concentration (IC50) came to 24.9 nM on KRAS (WT) and 7.43 nM at KRAS G12D. Moreover, the DC50 in experiment [1] worked out at 324 nM.

As for `CC(C)[C@@H](C(=O)N1C[C@H](O)C[C@H]1C(=O)N[C@@H](C)c1ccc(-c2c(F)cc(F)cc2F)cc1)c1cc(OCC2(F)CCN(CCOc3nc(N4CC5CCC(C4)N5)c4cc(Cl)c(-c5ccc(F)c6sc(N)c(C#N)c56)c(F)c4n3)CC2)no1` [Example 69, (2S,4R)-1-((2R)-2-(3-((1-(2-((7-(2-amino-3-cyano-7-fluorobenzo[b]thiophen-4-yl)-4-(3,8-diazabicyclo[3.2.1]octan-3-yl)-6-chloro-8-fluoroquinazolin-2-yl)oxy)ethyl)-4-fluoropiperidin-4-yl)methoxy)isoxazol-5-yl)-3-methylbutanoyl)-4-hydroxy-N-((S)-1-(2′,4′,6′-trifluoro-[1,1′-biphenyl]-4-yl)ethyl)pyrrolidine-2-carboxamide], the values for the IC50 on KRAS (WT) and on KRAS G12D were over 10000 nM and 35.2 nM, respectively. Also, the DC50 in experiment [1] came to 525 nM.

Turning to `CC(C)[C@H](C(=O)N1C[C@H](O)C[C@H]1C(=O)N[C@@H](C)c1ccc(-c2c(F)cc(F)cc2F)cc1)c1cc(N2CC3(CCN(CCOc4nc(N5CC6CCC(C5)N6)c5cc(Cl)c(-c6ccc(F)c7sc(N)c(C#N)c67)c(F)c5n4)CC3)C2)no1` [Example 67, (2S,4R)-1-((2S)-2-(3-(7-(2-((7-(2-amino-3-cyano-7-fluorobenzo[b]thiophen-4-yl)-4-(3,8-diazabicyclo[3.2.1]octan-3-yl)-6-chloro-8-fluoroquinazolin-2-yl)oxy)ethyl)-2,7-diazaspiro[3.5]nonan-2-yl)isoxazol-5-yl)-3-methylbutanoyl)-4-hydroxy-N-((S)-1-(2′,4′,6′-trifluoro-[1,1′-biphenyl]-4-yl)ethyl)pyrrolidine-2-carboxamide], the values for the IC50 on KRAS (WT) and on KRAS G12D were 5000 nM and 20 nM, respectively. The DC50 in experiment [1] was at least 10000 nM.

For `Cc1ncsc1-c1ccc([C@H](C)NC(=O)[C@@H]2C[C@@H](O)CN2C(=O)[C@@H](NC(=O)CCOCCCN2CCC[C@H]2COc2nc(N3CC4CCC(C3)N4)c3cc(C(F)(F)F)c(-c4ccc(F)c5sc(N)c(C#N)c45)c(F)c3n2)C(C)(C)C)cc1` [Example 91, (2S,4R)-1-((2S)-2-(3-(3-((2S)-2-((((7S)-7-(2-amino-3-cyano-7-fluorobenzo[b]thiophen-4-yl)-4-(3,8-diazabicyclo[3.2.1]octan-3-yl)-8-fluoro-6-(trifluoromethyl)quinazolin-2-yl)oxy)methyl)pyrrolidin-1-yl)propoxy)propanamido)-3,3-dimethylbutanoyl)-4-hydroxy-N—((S)-1-(4-(4-methylthiazol-5-yl)phenyl)ethyl)pyrrolidine-2-carboxamide], the IC50 came out at 23 nM at KRAS (WT) and 8.2 nM on KRAS G12D. In addition, the half-maximal degradation concentration (DC50) in experiment [1] turned out to be 23 nM.

Regarding `C[C@H](NC(=O)[C@@H]1C[C@@H](O)CN1C(=O)[C@@H](NC(=O)CCOCCCN1CCC[C@H]1COc1nc(N2CC3CCC(C2)N3)c2cc(C(F)(F)F)c(-c3ccc(F)c4sc(N)c(C#N)c34)c(F)c2n1)C(C)(C)C)c1ccc(-c2cccc(F)c2F)cc1` [Example 94, (2S,4R)-1-((2S)-2-(3-(3-((2S)-2-((((7S)-7-(2-amino-3-cyano-7-fluorobenzo [b]thiophen-4-yl)-4-(3,8-diazabicyclo[3.2.1]octan-3-yl)-8-fluoro-6-(trifluoromethyl)quinazolin-2-yl)oxy)methyl)pyrrolidin-1-yl)propoxy)propanamido)-3,3-dimethylbutanoyl)-N—((S)-1-(2′,3′-difluoro-[1,1′-biphenyl]-4-yl)ethyl)-4-hydroxypyrrolidine-2-carboxamide], the figures for the IC50 at KRAS (WT) and on KRAS G12D were 67 nM and 9.2 nM, respectively. Besides, in experiment [1], the DC50 turned out to be 38 nM.

As for `C#Cc1c(F)ccc2cc(O)cc(-c3ncc4c(N5CC6CCC(C5)N6)nc(OCCN5CCC6(C5)CN(c5cc([C@H](C(=O)N7C[C@H](O)C[C@H]7C(=O)N[C@@H](C)c7ccc(-c8c(F)cccc8F)cc7)C(C)C)on5)C6)nc4c3F)c12` [Example 101, (2S,4R)-1-((2R)-2-(3-(6-(2-((4-(3,8-diazabicyclo[3.2.1]octan-3-yl)-7-(8-ethynyl-7-fluoro-3-hydroxynaphthalen-1-yl)-8-fluoropyrido[4,3-d]pyrimidin-2-yl)oxy)ethyl)-2,6-diazaspiro[3.4]octan-2-yl)isoxazol-5-yl)-3-methylbutanoyl)-N—((S)-1-(2′,6′-difluoro-[1,1′-biphenyl]-4-yl)ethyl)-4-hydroxypyrrolidine-2-carboxamide], the IC50 was 1790 nM at KRAS (WT) and 13 nM on KRAS G12D. For the same compound, the 50% degradation concentration (DC50) in experiment [1] was 707 nM.

In the case of `C#Cc1c(F)ccc2cc(O)cc(-c3ncc4c(N5CC6CCC(C5)N6)nc(OCCN5CCC6(CC5)CN(c5cc([C@H](C(=O)N7C[C@H](O)C[C@H]7C(=O)N[C@@H](C)c7ccc(-c8ccccc8Cl)cc7)C(C)C)on5)C6)nc4c3F)c12` [Example 99, (2S,4R)-1-((2R)-2-(3-(7-(2-((4-(3,8-diazabicyclo[3.2.1]octan-3-yl)-7-(8-ethynyl-7-fluoro-3-hydroxynaphthalen-1-yl)-8-fluoropyrido[4,3-d]pyrimidin-2-yl)oxy)ethyl)-2,7-diazaspiro[3.5]nonan-2-yl)isoxazol-5-yl)-3-methylbutanoyl)-N—((S)-1-(2′-chloro-[1,1′-biphenyl]-4-yl)ethyl)-4-hydroxypyrrolidine-2-carboxamide], the half-maximal inhibitory concentration (IC50) at KRAS (WT) stood at 1610 nM; at KRAS G12D, 16 nM. Besides, the half-maximal degradation concentration (DC50) in experiment [1] stood at 264 nM.
